Measurements taken from US20090170886A1 (Pfizer Inc, priority 2005, published 2009).
Where two headings read alike, the source gives them in different places.

Biological target: T1, hAR (human androgen receptor, baculovirus/Sf9 generated extracts) (Homo sapiens, UniProt P10275)
T1 construct: made in house; host or cells: baculovirus/Sf9 insect cells (crude extract)
T1 sequence (P10275 1-920): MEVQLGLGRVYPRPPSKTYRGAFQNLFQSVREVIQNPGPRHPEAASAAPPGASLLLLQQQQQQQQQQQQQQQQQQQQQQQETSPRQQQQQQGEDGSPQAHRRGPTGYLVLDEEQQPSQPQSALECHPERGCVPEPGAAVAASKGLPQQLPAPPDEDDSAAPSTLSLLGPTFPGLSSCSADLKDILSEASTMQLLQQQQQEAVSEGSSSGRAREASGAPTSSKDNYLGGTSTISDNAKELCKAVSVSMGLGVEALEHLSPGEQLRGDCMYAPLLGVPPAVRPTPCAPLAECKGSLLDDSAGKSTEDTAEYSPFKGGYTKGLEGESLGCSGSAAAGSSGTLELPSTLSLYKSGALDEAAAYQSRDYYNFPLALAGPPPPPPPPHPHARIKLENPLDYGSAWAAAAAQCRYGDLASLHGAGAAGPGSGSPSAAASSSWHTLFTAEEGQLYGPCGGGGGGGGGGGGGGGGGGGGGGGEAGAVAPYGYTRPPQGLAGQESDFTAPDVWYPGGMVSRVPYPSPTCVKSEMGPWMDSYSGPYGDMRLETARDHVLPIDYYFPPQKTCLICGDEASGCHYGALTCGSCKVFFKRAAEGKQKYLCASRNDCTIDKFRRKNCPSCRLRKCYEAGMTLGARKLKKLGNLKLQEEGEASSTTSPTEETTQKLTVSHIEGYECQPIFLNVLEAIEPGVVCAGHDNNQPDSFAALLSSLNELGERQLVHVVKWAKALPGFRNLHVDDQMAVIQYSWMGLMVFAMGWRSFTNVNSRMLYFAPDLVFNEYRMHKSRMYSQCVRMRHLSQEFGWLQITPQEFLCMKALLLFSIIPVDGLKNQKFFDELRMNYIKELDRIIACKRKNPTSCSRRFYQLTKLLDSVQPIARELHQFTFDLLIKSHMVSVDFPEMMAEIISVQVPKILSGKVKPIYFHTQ
Assay: AR Binding Assay (competitive binding with 3H-DHT tracer)
Settings: 1 nM 3H-DHT, one hour at 4° C., mean of multiple tests
In short: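 Compounds at decreasing concentrations were incubated with baculovirus/Sf9 hAR extract, hydroxylapatite and 1 nM ^3H-DHT for one hour at 4° C., then washed three times. The value is the compound concentration inhibiting half of maximum ^3H-DHT binding, reported as the mean of multiple tests.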

[1] = hAR extract, read-out: AR Binding IC50

Row | Compound | IC50 (AR Binding IC50, hAR extract) | IC50 [1]
1 | CC(C)CC(Oc1ccc(C#N)c(C(F)(F)F)c1)c1cccc(O)c1 (single isomer, unassigned; (+)) [Example 21, (+)4-[1-(3-Hydroxyphenyl)-3-methylbutoxy]-2-(trifluoromethyl)benzonitrile] | 66 nM | –
2 | CCC(Oc1ccc(C#N)c(C(F)(F)F)c1)c1ccccn1 (stereo not drawn) [Example 79, 4-(1-Pyridin^−2-yl-propoxy)-2-trifluoromethyl-benzonitrile] | 148 nM | –
3 | CCCC(Oc1ccc(C#N)c(C(F)(F)F)c1)c1cccc(O)c1 (racemic) [Example 14, 4-[1-(3-Hydroxyphenyl)butoxy]-2-(trifluoromethyl)benzonitrile] | 18 nM | –
4 | N#Cc1ccc(OCc2cccc(O)c2)cc1C(F)(F)F [Example 6, 4-[(3-Hydroxybenzyl)oxy]-2-(trifluoromethyl)benzonitrile] | 12 nM | –
5 | CC(Oc1ccc(C#N)c(C(F)(F)F)c1)c1cccc(O)c1 (single isomer, unassigned; (-)) [Example 9, (−)-4-[1-(3-Hydroxyphenyl)ethoxy]-2-(trifluoromethyl)benzonitrile] | 56 nM | –
6 | CC(C)CC(Oc1ccc(C#N)c(C(F)(F)F)c1)c1cccnc1 (stereo not drawn) [Example 88, 4-(3-Methyl-1-pyridin-3-yl-butoxy)-2-trifluoromethyl-benzonitrile] | 218 nM | –
7 | CCCC(Oc1ccc(C#N)c(C(F)(F)F)c1)c1cccc(O)c1 (single isomer, unassigned; (+)) [Example 15, (+)4-[1-(3-Hydroxyphenyl)butoxy]-2-(trifluoromethyl)benzonitrile] | 20 nM | –
8 | C=CCC(Oc1ccc(C#N)c(C(F)(F)F)c1)c1cccc(O)c1 (single isomer, unassigned; (-)) [Example 19, (−)4-{[1-(3-Hydroxyphenyl)but-3-enyl]oxy}-2-(trifluoromethyl)benzonitrile] | 185 nM | –
9 | COc1cccc(C(C)Oc2ccc(C#N)c(C(F)(F)F)c2)n1 (stereo not drawn) [Example 80, 4-[1-(6-Methoxy-pyridin-2-yl)-ethoxy]-2-trifluoromethyl-benzonitrile] | – | 120 nM
10 | CC(Oc1ccc(C#N)c(C(F)(F)F)c1)c1cncc(O)c1 (single isomer, unassigned; (+)) [Example 74, (+)4-[1-(5-Hydroxypyridin-3-yl)ethoxy]-2-(trifluoromethyl)benzonitrile] | – | 35 nM
11 | CC(Oc1ccc(C#N)c(C(F)(F)F)c1)c1ccccc1 (racemic) [Example 1, 4-(1-Phenyl-ethoxy)-2-trifluoromethyl-benzonitrile] | 10 nM | –
12 | Cc1ccc(C(CC(C)C)Oc2ccc(C#N)c(C(F)(F)F)c2)cn1 (stereo not drawn) [Example 89, 4-[3-Methyl-1-(6-methyl-pyridin-3-yl)-butoxy]-2-trifluoromethyl-benzonitrile] | 137 nM | –
